# Assay results from US20110097385A1, “Delivery System for Drug and Cell Therapy” (TTDC BIO L.P., priority 2003, published 2011).
# Key:
# humans = conditions: in humans, company information (Novo Nordisk); cited from earlier work
# Chinchilla rabbits = assay: Blood glucose and duration of efficacy in rabbits after subcutaneous insulin formulations; conditions: rabbit, 8 UI subcutaneously
# Experimental: Samples of the formulation were subcutaneously injected into the rabbits. […] Samples of animal blood were taken from the rabbit's ear vein and analyzed for glucose concentration. Blood glucose concentration was measured with a glucose analyzer (One-Touch® Lifescan, Johnson & Johnson, Milpitas, Calif., USA) after proper calibration.
# In comparative examples 23 and 24, two intact rabbits were not provided any insulin.
# mice = assay: Blood glucose in mice after injected insulin with or without crystallized dextran microparticles; format: in vivo; conditions: mouse
# Experimental: The suspension was prepared as follows. 5.0 g of Dextran T10 (Pharmacia, Uppsala, Sweden) was dissolved in 20.0 g of water. The solution was filtered through a 0.22 μm filter (Millipore, Bedford, Mass.) and freeze dried. 3.0 g of the resulting powder was dissolved in 3.0 g of sterile water and placed in box at temperature 60° C. […] Finally, the produced crystallized dextran microparticles suspension was mixed with aqueous insulin solution and used in the experiment with mice. Samples of the suspension were introduced into the mice's legs and samples of animal blood were taken from each mouse's tail and analyzed for glucose concentrations.
# In comparative example 15, no insulin was injected into the mouse.
# mouse = assay: Blood glucose in mouse after subcutaneous two phase composition or insulin alone; format: in vivo; conditions: 0.5 UI insulin subcutaneously
# Experimental: 0.05 ml of the PEG and insulin solution is mixed with 0.15 ml of the microparticle and dextran suspension to form a two phase composition or mixture. 0.02 ml of the two phase mixture containing 0.5 UI of insulin is injected subcutaneously into mouse.
# [1] = insulin 0.5 UI injected, listed as 16
# [2] = insulin 0.5 UI injected, listed as 21
substance,measurement,setting,value
"Monotard HM®: long-acting insulin of Novo Nordisk (40 UI/ml), injected subcutaneously alone at 8 UI",advertised duration of efficacy,humans,twenty four
same,glucose 0 hours,Chinchilla rabbits; 0 hours,5.4 mmol/L
same,glucose 0.5 hours,Chinchilla rabbits; listed as 25,5.8 mmol/L
same,glucose 0.5 hours,Chinchilla rabbits; listed as 26,5.0 mmol/L
same,glucose 1 hour,Chinchilla rabbits; listed as 25,3.8 mmol/L
same,glucose 1 hour,Chinchilla rabbits; listed as 26,4.2 mmol/L
same,glucose 1.5 hours,Chinchilla rabbits; listed as 25,3.2 mmol/L
same,glucose 1.5 hours,Chinchilla rabbits; listed as 26,2.9 mmol/L
same,glucose 2 hours,Chinchilla rabbits; listed as 25,2.4 mmol/L
same,glucose 2 hours,Chinchilla rabbits; listed as 26,2.5 mmol/L
same,glucose 16 hours,Chinchilla rabbits; listed as 25,3.9 mmol/L
same,glucose 16 hours,Chinchilla rabbits; listed as 26,4.0 mmol/L
same,glucose 24 hours,Chinchilla rabbits; listed as 25,5.6 mmol/L
same,glucose 24 hours,Chinchilla rabbits; listed as 26,5.1 mmol/L
same,glucose […],Chinchilla rabbits; listed as 25,2.6 mmol/L
same,glucose […],Chinchilla rabbits; listed as 26,2.4 mmol/L
"Actrapid HM®: short-acting human recombinant insulin of Novo Nordisk, injected alone; Ex 21 is the average of 16 and 17",change of blood glucose level from 120 minutes to 390 minutes after injection,mice; insulin 0.5 UI,did substantially increase
same,glucose 0 min,mice; insulin 0.5 UI injected,8.1 mmol/L
same,glucose 0 min,mice; [1],5.9 mmol/L
same,glucose 0 min,mice; [2],7 mmol/L
same,glucose 15 min,mice; insulin 0.5 UI injected,3.8 mmol/L
same,glucose 15 min,mice; [1],3.3 mmol/L
same,glucose 15 min,mice; [2],3.6 mmol/L
same,glucose 30 min,mice; insulin 0.5 UI injected,2.8 mmol/L
same,glucose 30 min,mice; [1],2.7 mmol/L
same,glucose 30 min,mice; [2],2.8 mmol/L
same,glucose 45 min,mice; insulin 0.5 UI injected,1.9 mmol/L
same,glucose 45 min,mice; [1],1.8 mmol/L
same,glucose 45 min,mice; [2],1.9 mmol/L
same,glucose 120 min,"mice; insulin 0.5 UI injected, 120 min",0.9 mmol/L
same,glucose 210 min,mice; insulin 0.5 UI injected,3.7 mmol/L
same,glucose 210 min,mice; [1],3.5 mmol/L
same,glucose 210 min,mice; [2],3.6 mmol/L
same,glucose 270 min,mice; insulin 0.5 UI injected,3.4 mmol/L
same,glucose 270 min,mice; [1],3.0 mmol/L
same,glucose 270 min,mice; [2],3.2 mmol/L
same,glucose 390 min,mice; insulin 0.5 UI injected,3.5 mmol/L
same,glucose 390 min,mice; [1],3.2 mmol/L
same,glucose 390 min,mice; [2],3.4 mmol/L
same,glucose 15 min,mouse; 15 min,3.7 mmol/L
same,glucose 30 min,mouse; 30 min,2.3 mmol/L
same,glucose 45 min,mouse; 45 min,1.7 mmol/L
same,glucose 60 min,mouse; 60 min,2.9 mmol/L
same,glucose 120 min,mouse; 120 min,6.7 mmol/L
same,advertised duration of efficacy,humans,eight
